Experiment: xn = mol fraction of the nth substance listed

C1COCO1 + CCO
303.15 K, 101 kPa
Conditions | viscosity [mPa·s]
x1 = 0.06463 | 0.898
x1 = 0.1346 | 0.838
x1 = 0.2104 | 0.7691
x1 = 0.2931 | 0.6852
x1 = 0.3834 | 0.6333
x1 = 0.4826 | 0.6121
x1 = 0.592 | 0.591
x1 = 0.7133 | 0.5886
x1 = 0.8484 | 0.569

C=CCN(CC=C)C(=O)C(Cl)Cl + CCO
viscosity [mPa·s], 101 kPa
Conditions | x1 = 0.004764 | x1 = 0.01126 | x1 = 0.01785 | x1 = 0.02455 | x1 = 0.03127 | x1 = 0.03725 | x1 = 0.04407
293.15 K | 1.208 | 1.238 | 1.258 | 1.284 | 1.314 | 1.334 | 1.372
298.15 K | 1.108 | 1.134 | 1.162 | 1.178 | 1.201 | 1.215 | 1.245
303.15 K | 1.008 | 1.025 | 1.043 | 1.062 | 1.08 | 1.1 | 1.116
308.15 K | 0.9132 | 0.9322 | 0.9453 | 0.9641 | 0.9854 | 0.9997 | 1.02
313.15 K | 0.832 | 0.8475 | 0.8596 | 0.8743 | 0.8941 | 0.9139 | 0.9264

CCCOCC(C)O (stereo not drawn) + CCO
viscosity [mPa·s], 101.33 kPa
Conditions | 298.15 K | 308.15 K | 318.15 K
x1 = 0.05 | 1.18 | 0.974 | 0.813
x1 = 0.1 | 1.272 | 1.041 | 0.863
x1 = 0.15 | 1.363 | 1.108 | 0.911
x1 = 0.2 | 1.448 | 1.171 | 0.96
x1 = 0.25 | 1.534 | 1.231 | 1.005
x1 = 0.3 | 1.612 | 1.288 | 1.046
x1 = 0.35 | 1.716 | 1.362 | 1.105
x1 = 0.4 | 1.79 | 1.417 | 1.142
x1 = 0.45 | 1.862 | 1.467 | 1.177
x1 = 0.5 | 1.928 | 1.513 | 1.21
x1 = 0.55 | 1.998 | 1.557 | 1.241
x1 = 0.6 | 2.056 | 1.602 | 1.274
x1 = 0.65 | 2.113 | 1.651 | 1.297
x1 = 0.7 | 2.168 | 1.674 | 1.322
x1 = 0.75 | 2.219 | 1.706 | 1.345
x1 = 0.8 | 2.264 | 1.734 | 1.368
x1 = 0.8498 | 2.307 | 1.766 | 1.389
x1 = 0.9 | 2.354 | 1.79 | 1.406
x1 = 0.95 | 2.369 | 1.815 | 1.414

CN(C)P(=O)(N(C)C)N(C)C + CCO
303.15 K, 101.3 kPa
Conditions | viscosity [mPa·s]
x1 = 0.1007 | 1.255
x1 = 0.2043 | 1.461
x1 = 0.2959 | 1.627
x1 = 0.3983 | 1.807
x1 = 0.5079 | 2.005
x1 = 0.5998 | 2.18
x1 = 0.698 | 2.362
x1 = 0.8012 | 2.557
x1 = 0.9052 | 2.75

Cc1cccc(C)n1 + CCO
298.15 K, 101 kPa
Conditions | viscosity [mPa·s]
x1 = 0.0454 | 1.15
x1 = 0.09639 | 1.164
x1 = 0.2211 | 1.202
x1 = 0.3891 | 1.133
x1 = 0.6241 | 1.02
x1 = 0.8038 | 0.9686

CC(=O)c1ccccc1 + CCOC(=O)OCC
viscosity [mPa·s], 101 kPa
Conditions | x2 = 0.0972 | x2 = 0.1515 | x2 = 0.2512 | x2 = 0.3615 | x2 = 0.4921 | x2 = 0.5705 | x2 = 0.6654 | x2 = 0.7584 | x2 = 0.8932 | x2 = 0.9425
303.15 K | 1.413 | 1.358 | – | 1.155 | – | 0.977 | 0.906 | 0.843 | 0.76 | 0.732
308.15 K | 1.286 | 1.237 | 1.15 | 1.059 | 0.958 | 0.902 | 0.839 | 0.783 | 0.708 | 0.683
313.15 K | 1.205 | 1.159 | 1.079 | 0.995 | 0.901 | 0.85 | 0.791 | 0.738 | 0.669 | 0.646

CC(=O)c1ccccc1 + CCOC(C)=O
viscosity [mPa·s], 100 kPa
Conditions | x1 = 0.0775 | x1 = 0.1574 | x1 = 0.2396 | x1 = 0.3244 | x1 = 0.4119 | x1 = 0.5021 | x1 = 0.5953 | x1 = 0.6915 | x1 = 0.7909 | x1 = 0.8937
303.15 K | 0.4772 | 0.5756 | 0.6734 | 0.7711 | 0.8688 | 0.9666 | 1.064 | 1.162 | 1.26 | 1.358
313.15 K | 0.424 | 0.5047 | 0.5856 | 0.6665 | 0.7474 | 0.8284 | 0.9093 | 0.9902 | 1.071 | 1.152
323.15 K | 0.374 | 0.4427 | 0.5114 | 0.5801 | 0.6488 | 0.7175 | 0.7862 | 0.8549 | 0.9236 | 0.9923

O=S(Cl)Cl + CCOC(C)=O
298.15 K, 101 kPa
Conditions | viscosity [mPa·s]
x1 = 0.225 | 0.4911
x1 = 0.316 | 0.5174
x1 = 0.534 | 0.5759
x1 = 0.7 | 0.6117
x1 = 0.83 | 0.6177

O=S(Cl)Cl + CCOCC
298.15 K, 101 kPa
Conditions | viscosity [mPa·s]
x1 = 0.334 | 0.3365
x1 = 0.845 | 0.548

ClC(Cl)C(Cl)(Cl)Cl + CCOc1ccccc1
298.15 K, 101 kPa
Conditions | viscosity [mPa·s]
x2 = 0.0971 | 2.1
x2 = 0.2214 | 1.92
x2 = 0.4895 | 1.607
x2 = 0.6798 | 1.393
x2 = 0.903 | 1.206

C1COCO1 + CN(C)C=O
viscosity [mPa·s], 101 kPa
Conditions | x2 = 0.1012 | x2 = 0.2021 | x2 = 0.3028 | x2 = 0.4032 | x2 = 0.5033 | x2 = 0.6032 | x2 = 0.7028 | x2 = 0.8021 | x2 = 0.9012
298.15 K | 0.567 | 0.568 | 0.578 | 0.594 | 0.614 | 0.642 | 0.676 | 0.715 | 0.759
308.15 K | 0.506 | 0.51 | 0.52 | 0.535 | 0.552 | 0.578 | 0.606 | 0.637 | 0.671
318.15 K | 0.467 | 0.477 | 0.488 | 0.5 | 0.515 | 0.534 | 0.555 | 0.576 | 0.597

C1COCO1 + CO
303.15 K, 101 kPa
Conditions | viscosity [mPa·s]
x1 = 0.04585 | 0.5056
x1 = 0.09758 | 0.5088
x1 = 0.1564 | 0.516
x1 = 0.2238 | 0.5272
x1 = 0.3019 | 0.5382
x1 = 0.3935 | 0.5516
x1 = 0.5023 | 0.5642
x1 = 0.6337 | 0.5454
x1 = 0.7956 | 0.5446

CN(C)P(=O)(N(C)C)N(C)C + CO
303.15 K, 101.3 kPa
Conditions | viscosity [mPa·s]
x1 = 0.0993 | 0.829
x1 = 0.2036 | 1.145
x1 = 0.2984 | 1.401
x1 = 0.3941 | 1.63
x1 = 0.4882 | 1.846
x1 = 0.5898 | 2.07
x1 = 0.6978 | 2.308
x1 = 0.778 | 2.476
x1 = 0.8966 | 2.722

Cc1cccc(C)n1 + CO
101 kPa
Conditions | viscosity [mPa·s]
298.01 K, x1 = 0.1115 | 0.705
298.12 K, x1 = 0.2763 | 0.857
298.18 K, x1 = 0.4001 | 0.912
298.18 K, x1 = 0.5482 | 0.909
298.19 K, x1 = 0.8449 | 0.846
298.24 K, x1 = 0.2399 | 0.823
298.29 K, x1 = 0.7013 | 0.891
303.08 K, x1 = 0.1115 | 0.655
303.15 K, x1 = 0.8449 | 0.789
303.17 K, x1 = 0.2763 | 0.793
303.21 K, x1 = 0.2399 | 0.763
303.21 K, x1 = 0.4001 | 0.85
303.24 K, x1 = 0.7013 | 0.828
303.25 K, x1 = 0.5482 | 0.84
308.08 K, x1 = 0.1115 | 0.613
308.18 K, x1 = 0.8449 | 0.737
308.19 K, x1 = 0.2763 | 0.739
308.24 K, x1 = 0.5482 | 0.782
308.25 K, x1 = 0.2399 | 0.71
308.26 K, x1 = 0.7013 | 0.774
312.95 K, x1 = 0.2399 | 0.662
313.15 K, x1 = 0.1115 | 0.572
313.22 K, x1 = 0.8449 | 0.691
313.25 K, x1 = 0.2763 | 0.688
313.27 K, x1 = 0.4001 | 0.729
313.33 K, x1 = 0.7013 | 0.725
318.22 K, x1 = 0.1115 | 0.535
318.28 K, x1 = 0.8449 | 0.65
318.32 K, x1 = 0.2399 | 0.617
318.33 K, x1 = 0.2763 | 0.643
318.33 K, x1 = 0.4001 | 0.682
318.35 K, x1 = 0.5482 | 0.688
318.38 K, x1 = 0.7013 | 0.68

CC(=O)c1ccccc1 + COC(=O)c1ccccc1
viscosity [mPa·s], 101 kPa
Conditions | x2 = 0.0946 | x2 = 0.1898 | x2 = 0.2861 | x2 = 0.386 | x2 = 0.4823 | x2 = 0.5819 | x2 = 0.6825 | x2 = 0.7877 | x2 = 0.8917
303.15 K | 1.527 | 1.558 | 1.588 | 1.611 | 1.608 | 1.606 | 1.6 | 1.593 | 1.614
313.15 K | 1.285 | 1.307 | 1.329 | 1.348 | 1.341 | 1.334 | 1.322 | 1.315 | 1.329

CCC(C)C(C)C (stereo not drawn) + COC(C)(C)C
298.15 K, 101.33 kPa
Conditions | viscosity [mPa·s]
x2 = 0.0983 | 0.3824
x2 = 0.1999 | 0.3758
x2 = 0.2986 | 0.3693
x2 = 0.3972 | 0.363
x2 = 0.4975 | 0.3572
x2 = 0.5979 | 0.3519
x2 = 0.7006 | 0.3469
x2 = 0.797 | 0.3423
x2 = 0.8949 | 0.3387

C1COCO1 + COCCO
298.15 K, 101 kPa
Conditions | viscosity [mPa·s]
x1 = 0.1024 | 1.345
x1 = 0.2043 | 1.171
x1 = 0.3057 | 1.032
x1 = 0.4065 | 0.9197
x1 = 0.5067 | 0.8293
x1 = 0.6064 | 0.7564
x1 = 0.7056 | 0.6979
x1 = 0.8043 | 0.6517
x1 = 0.9024 | 0.6155

CCC(O)CC + COc1ccccc1
viscosity [mPa·s], 101.33 kPa
Conditions | x2 = 0.1007 | x2 = 0.2006 | x2 = 0.3001 | x2 = 0.3996 | x2 = 0.5 | x2 = 0.5999 | x2 = 0.6973 | x2 = 0.7998 | x2 = 0.8971
303.15 K | 2.787 | 2.043 | 1.547 | 1.238 | 1.062 | 0.976 | 0.941 | 0.927 | 0.917
313.15 K | 1.745 | 1.355 | 1.093 | 0.938 | 0.863 | 0.835 | 0.824 | 0.811 | 0.793
323.15 K | 1.261 | 1.041 | 0.888 | 0.795 | 0.747 | 0.729 | 0.719 | 0.709 | 0.697

O=S(Cl)Cl + Cc1cc(C)cc(C)c1
298.15 K, 101 kPa
Conditions | viscosity [mPa·s]
x1 = 0.234 | 0.685
x1 = 0.314 | 0.6908
x1 = 0.432 | 0.6952
x1 = 0.571 | 0.6939
x1 = 0.743 | 0.677
x1 = 0.9 | 0.6495

— the CheMixHub viscosity set
